The record followed here is patent US7465738B2, “Compounds useful as promoters of SMN2” (Vertex Pharmaceuticals Incorporated, priority 2003, dated 2008).

In one assay the test system is SMN2 promoter. In words: SMN2 promoter-β-lactamase (BLA) assay in NSC-34 cells. In kind it is cell-based, mouse. Particulars: 15 NSC-34 SMN2-promoter-BLA clones with low BLA activity. An excerpt:
Compounds were screened for their ability to increase SMN2 gene transcription. In general the screening method of the invention involves the use of an SMN2 promoter-β-lactamase (BLA) assay in NSC-34 cells. […] This construct was transfected into the NSC-34 cells and a stable pool of SMN2-promoter-BLA cells was generated. […] Optimized protocols are presented in the procedures below. […] Subculture Protocol for and the […]-Bla Cell Line (#5.3) and the SMN2 Promoter-Bla Cell Line (#11). […] Cells were kept at a density between 50,000 and 500,000/ml and were fed every three days with DMEM 5% FCS and incubated at 37° C., 5% CO2 and 90% humidity. • b. Cells were then plated at low density (50,000 cells/ml). • c. […] Cells were fed by manually pipetting the cells, and passaging the cells 1 to 10 to a new flask. […] Standard Assay Protocol #1 for SMN2 Promoter Assays in 96-Well Plates: • e. Cells were washed twice with cold PBS by spinning down and resuspending at 250,000 cells/ml. • f. Cells were resuspended in DMEM 0% FCS at a density of 500,000 cells/ml. • g. Cells were then dispensed 100 μl cells per well of a 96-well, black wall, clear bottom assay plate (Corning Costar, Cat. # 3904). Plate can be pre-formatted with test compounds. • h. […] Cells were incubated for 1 hour in the dark at room temperature. • 6×CCF2-AM Staining Solution: • 60 μl of Sol B • 6 μl of CCF2-AM (1 mM) • 12 μl of Probenecid (1 M, Sigma, Cat # 8761) • 1 μl of Sol C • j. Assay plates were read on a fluorimeter (for example, the Cytofluor 4000 from Perceptive Biosystems) using the following two settings: 460/40 nm emission with 395/25 nm excitation, and 530/25 nm emission with 395/25 nm excitation. • k. […] Standard Assay Protocol #2 for SMN2 Promoter Assays in 96-Well Plates: • l. Cells were washed twice with cold PBS by spinning down and resuspending at 250,000 cells/ml. • m. Cells were then resuspended in DMEM 1% FCS Charcoal Dextran-treated (Hyclone, Cat # SH30038.05) at a density of […]. • n. Cells were then incubated for 24 hours at 37° C. • o. 100 μl cells per well were then dispensed in a 96-well, black wall, clear bottom assay plate (Corning Costar, Cat. # 3904). Plate can be pre-formatted with test compounds. • p. […] Cells were incubated for one hour in the dark at room temperature. • 6×CCF2-AM Staining Solution: • 60 μl of Sol B • 6 μl of CCF2-AM (1 mM) • 12 μl of Probenecid (1 M, Sigma, Cat# 8761) • 1 μl of SolC • r. Assay plates were read on a fluorimeter (for example, the Cytofluor 4000 from Perceptive Biosystems) using the following two settings: 460/40 nm emission with 395/25 nm excitation, and 530/25 nm emission with 395/25 nm excitation. • s.
As for `CC(C)Cn1c(=O)n(C)c(=O)c2[nH]cnc21` [IBMX, reference compound], the “changes in BLA activity after treatment” value is reported as “none showed changes in BLA activity”.

Staying with this assay, now noted: Mus musculus; SMN2 promoter BLA assay, NSC-34 cells, 96-well plates.
Usually EC50 stands for the midpoint of the concentration-response curve. High values mean lower potency in that assay, low ones higher potency in that assay. `CCCN(Cc1ccc([N+](=O)[O-])cc1)c1nc(O)nc(NC2CCCC2)n1` [VIII-1]: the 50% effective concentration (EC50) amounted to 9000 nM.

Regarding `Nc1nc(N)c2c(Oc3ccc(F)cc3)cccc2n1` [Compound I-3], the EC50 was 150 nM.

Turning to `CCOc1cccc2nc(N)nc(N)c12` [Compound I-6], the response was half-maximal at 600 nM (EC50). Against the preceding compound, the EC50 is about 4-fold higher.

Turning to `CN(C)/C=C/c1c(C=O)c2cc([N+](=O)[O-])ccc2n1C` [Compound V-1, 2-((E)-2-(dimethylamino)vinyl)-1-methyl-5-nitro-1H-indole-3-carbaldehyde], the EC50 was 6800 nM. This EC50 is about 11-fold higher than that of the compound before.

`Nc1nc(N)c2c(Sc3ccc(Cl)cc3)cccc2n1` [Compound I-2] yielded an EC50 of 530 nM.

`O=C1C(=O)N(C(=O)NC2CCCCC2)c2ccc(Br)cc21` [VI-1] came in with an EC50 of 10000 nM.

`Nc1nc(N)c2c(Oc3ccccc3)cccc2n1` [Compound I-5] gave an EC50 of 250 nM.

Consider `OCCNCCCOc1cccc(Cl)c1Cl` [VII-1], for which a half-maximal response (EC50) required 3000 nM. Against the preceding compound, the EC50 is about 12-fold higher.

Staying with this assay, now noted: clone SMN2BLAClone11.
For the compound `CCCC(=O)[O-].[Na+]` [sodium butyrate, reference compound], the “increase in BLA expression upon stimulation” value is on record as 1.8 fold.
